# Test results as given in patent US11225503B2, “Crystobactamides” (HELMHOLTZ-ZENTRUM FÜR INFEKTIONSFORSCHUNG GMBH, priority 2013, dated 2022).
# Key:
# Assay type in all cases: cell-based
# [1] = tested on: Chromobacterium violaceum DSM-30191; test: Susceptibility testing, MIC microdilution; settings: Chromobacterium violaceum DSM-30191
# Method: (§1) Bacterial wildtype strains used in susceptibility assays were either part of our strain collection or purchased from the German Collection of Microorganisms and Cell Cultures (DSMZ) or from the American Type Culture Collection (ATCC). E. coli strain WT^[6] and E. coli mutants were kindly provided by Prof. Dr. P. Heisig, Pharmaceutical Biology and Microbiology, University of Hamburg.
# (§2) MIC values were determined in microdilution assays. Overnight cultures were diluted in the appropriate growth medium to achieve an inoculum of 10^4-10^6 cfu/mL. Yeasts were grown in Myc medium (1% phytone peptone, 1% glucose, 50 mM HEPES, pH 7.0), S. pneumonia and E. faecalis in tryptic soy broth (TSB: 1.7% peptone casein, 0.3% peptone soymeal, 0.25% glucose, 0.5% NaCl, 0.25% K2HPO4; pH 7.3); M. smegmatis in Middlebrook 7H9 medium supplemented with 10% Middlebrook ADC enrichment and 2 ml/l glycerol). All other listed bacteria were grown in Müller-Hinton broth (0.2% beef infusion solids, 1.75% casein hydrolysate, 0.15% starch, pH 7.4). Cystobactamides and reference drugs were added directly to the cultures in sterile 96-well plates as duplicates and serial dilutions were prepared. Microorganisms were grown on a microplate shaker (750 rpm, 30-37° C., 18-48 h), except S. pneumonia, which was grown at non-shaking conditions (37° C., 5% CO2, 18 h). Growth inhibition was assessed by visual inspection and the MIC was defined as the lowest concentration of compound that inhibited visible growth.
# [2] = tested on: Mycobacterium smegmatis mc^2155 ATCC700084; test: Susceptibility testing, MIC microdilution; settings: Mycobacterium smegmatis mc^2155 ATCC700084
# Method: as §1, §2
# [3] = tested on: Pseudomonas aeruginosa ATCC27853; test: Susceptibility testing, MIC microdilution
# Method: as §1, §2
# Pichia anomala DSM-6766 = test: Susceptibility testing, MIC microdilution; settings: Pichia anomala DSM-6766
# Method: as §1, §2
# [4] = tested on: Escherichia coli DSM-1116; test: Susceptibility testing, MIC microdilution; settings: Escherichia coli DSM-1116
# Method: as §1, §2
# [5] = tested on: Escherichia coli ATCC35218; test: Susceptibility testing, MIC microdilution
# Method: as §1, §2
# [6] = tested on: Candida albicans DSM-1665; test: Susceptibility testing, MIC microdilution; settings: Candida albicans DSM-1665
# Method: as §1, §2
# Bacillus subtilis DSM-10 = test: Susceptibility testing, MIC microdilution; settings: Bacillus subtilis DSM-10
# Method: as §1, §2
# [7] = tested on: Burkholderia cenocepacia DSM-16553; test: Susceptibility testing, MIC microdilution; settings: Burkholderia cenocepacia DSM-16553
# Method: as §1, §2
# [8] = tested on: Escherichia coli DSM-26863 (tolC3); test: Susceptibility testing, MIC microdilution; settings: Escherichia coli DSM-26863 (tolC3)
# Method: as §1, §2
# [9] = tested on: Staphylococcus aureus ATCC29213; test: Susceptibility testing, MIC microdilution
# Method: as §1, §2
# [10] = tested on: Enterococcus faecalis ATCC29212; test: Susceptibility testing, MIC microdilution
# Method: as §1, §2
# [11] = tested on: Escherichia coli ATCC25922; test: Susceptibility testing, MIC microdilution
# Method: as §1, §2
# [12] = tested on: Micrococcus luteus DSM-1790; test: Susceptibility testing, MIC microdilution; settings: Micrococcus luteus DSM-1790
# Method: as §1, §2
# [13] = tested on: Escherichia coli DSM-12242 (NAL^R); test: Susceptibility testing, MIC microdilution; settings: Escherichia coli DSM-12242 (NAL^R)
# Method: as §1, §2
# [14] = tested on: Enterobacter aerogenes DSM-30053; test: Susceptibility testing, MIC microdilution; settings: Enterobacter aerogenes DSM-30053
# Method: as §1, §2
# [15] = tested on: Klebsiella pneumoniae DSM-30104; test: Susceptibility testing, MIC microdilution; settings: Klebsiella pneumoniae DSM-30104
# Method: as §1, §2
# [16] = tested on: Streptococcus pneumoniae DSM-20566; test: Susceptibility testing, MIC microdilution; settings: Streptococcus pneumoniae DSM-20566
# Method: as §1, §2
# [17] = tested on: Acinetobacter baumannii DSM-30008; test: Susceptibility testing, MIC microdilution; settings: Acinetobacter baumannii DSM-30008
# Method: as §1, §2
# [18] = tested on: several microorganisms and cell lines; test: Biological evaluation, summary statements over the MIC and cytotoxicity tests
# Method: (§3) Cells were seeded at 6×10^3 cells per well of 96-well plates (Corning CellBind®) in complete medium (180 μl) and directly treated with cystobactamides dissolved in methanol in a serial dilution. Compound were tested in duplicate for 5 d, as well as the internal solvent control. After 5 d incubation, 5 mg/ml MTT in PBS (20 μL) was added per well and it was further incubated for 2 h at 37° C.[7] The medium was then discarded and cells were washed with PBS (100 μl) before adding 2-propanol/10N HCl (250:1, v/v; 100 μl) in order to dissolve formazan granules. The absorbance at 570 nm was measured using a microplate reader (EL808, Bio-Tek Instruments Inc.).
# as §2
# [19] = tested on: Primary HUVEC (human umbilical vein endothelial cells)
# Method: (§4) Human HCT-116 colon carcinoma cells (CCL-247) were obtained from the American Type Culture Collection (ATCC) and Chinese hamster ovary CHO-K1 cells (ACC-110) were obtained from the German Collection of Microorganisms and Cell Cultures (DSMZ). Both cell lines were cultured under the conditions recommended by the respective depositor. Primary HUVEC (human umbilical vein endothelial cells; single donor) were purchased from PromoCell (Heidelberg, Germany) and cultured in Endothelial Cell Growth Medium (PromoCell) containing the following supplements: 2% FCS, 0.4% ECGS, 0.1 ng/ml EGF, 1 ng/ml bFGF, 90 μg/ml heparin, 1 μg/ml hydrocortisone.
# as §3
# [20] = tested on: Human HCT-116 colon carcinoma cells
# Method: as §4, §3
# [21] = tested on: E. coli strain WT-3 (combination of both gyrA mutations); settings: Escherichia coli WT-3 [gyrA(S83L, D87G)]
# Description: (§5) Cystobactamides were screened using a panel of E. coli strains with typical mutations in gyrA and parC genes (Table 11).
# as §1
# as §2, with “Cystobactamides and reference drugs were added directly to the cultures in sterile 96-well plates as duplicates and serial dilutions were prepared. Microorganisms were grown on a microplate shaker (750 rpm, 30-37° C., 18-48 h), except S. pneumonia, which was grown at non-shaking conditions (37° C., 5% CO2, 18 h).” left out
# [22] = tested on: E. coli strain WT-3.2 (single-step gyrA mutation); test: Susceptibility of mutant E. coli strains, MIC; settings: Escherichia coli WT-3.2 [gyrA(D87G)]
# Description: as §5, §1, §2
# [23] = tested on: E. coli strain WT-4 M2.1 (parC mutation); test: Susceptibility of mutant E. coli strains, MIC; settings: Escherichia coli WT-4 M2.1 [parC(S801)]
# Description: as §5, §1, §2
# [24] = tested on: E. coli strain MI (single-step gyrA mutation); test: Susceptibility of mutant E. coli strains, MIC; settings: Escherichia coli MI [gyrA(S83L)]
# Description: as §5, §1, §2
# E. coli WT = test: Susceptibility of mutant E. coli strains, MIC; settings: Escherichia coli WT
# Description: as §5
# High-level quinolone resistance often results from a combination of several target site mutations and altered efflux mechanisms. […] This, in turn, leads to overproduction of MarA and AcrAB and overexpression of the AcrAB efflux pump is associated with the MAR (multiple antibiotic resistance) phenotype.^[5]
# as §1, §2
# [25] = tested on: Escherichia coli MI-4 [gyrA(S83L), parC(S801)]; test: Susceptibility of mutant E. coli strains, MIC
# Description: as §5
# [26] = tested on: E. coli strain WT III (marR Δ74 bp); test: Susceptibility of mutant E. coli strains, MIC
# Method: as §1, §2
smiles,measurement,setting,value
COC(C(=O)Nc1ccc(C(=O)Nc2ccc(C(=O)Nc3ccc(C(=O)O)cc3OC(C)C)c(O)c2OC(C)C)cc1)C(NC(=O)c1ccc(NC(=O)c2ccc([N+](=O)[O-])cc2)cc1)C(=O)O (stereo not shown) [cystobactamide B],MIC,[1],14.7 µg/mL
same,MIC,[2],>59 µg/mL
same,MIC,[3],14.7 µg/mL
same,MIC,Pichia anomala DSM-6766,>59 µg/mL
same,MIC,[4],1.8 µg/mL
same,MIC,[5],1.8 µg/mL
same,MIC,[6],>59 µg/mL
same,MIC,Bacillus subtilis DSM-10,0.46 µg/mL
same,MIC,[7],>59 µg/mL
same,MIC,[8],1.8 µg/mL
same,MIC,[9],0.12 µg/mL
same,MIC,[10],0.23 µg/mL
same,MIC,[11],0.9 µg/mL
same,MIC,[12],0.23 µg/mL
same,MIC,[13],3.7 µg/mL
same,MIC,[14],>59 µg/mL
same,MIC,[15],>59 µg/mL
same,MIC,[16],0.46 µg/mL
same,MIC,[17],3.7 µg/mL
same,inhibition of pathogenic Gram-negative strains A. baumannii and P. aeruginosa (MIC range),[18]; A. baumannii and P. aeruginosa,low μg/ml range
same,average potency on Gram-positive bacteria compared with ciprofloxacin,"[18]; E. faecalis, S. aureus, S. pneumonia, average MIC",exceeded that of ciprofloxacin
same,GI50,[19],> 50 µM
same,GI50,[20],> 50 µM
same,MIC,[21],7.4 µg/mL
same,MIC,[22],3.7 µg/mL
same,MIC,[23],1.8 µg/mL
same,MIC,[24],3.7 µg/mL
same,MIC,E. coli WT,1.8 µg/mL
same,MIC,[25],1.8 µg/mL
same,"MIC, in words",[26]; E. coli WT III,in the μg/ml range
same,MIC,[26]; Escherichia coli WTIII [marRΔ74bp],3.7 µg/mL
